Assay results: ChEMBL document CHEMBL3044873, “Aryl N, N-Dimethylcarbamates, Synergists for Organophosphorus Insecticides against Organophos-phorusresistant Rice Stem Borers” (J Pestic Sci, 1990)

Tests used:
Assay type in all cases: functional
Chilo suppressalis [1] = experiment: Potentiation of fenitrothion-induced insecticidal activity against OP-resistant Chilo suppressalis Hata-f (rice stem borer) assessed as synergistic ratio at 1:10 fenitrothion to compound ratio relative to fenitrothion alone
Chilo suppressalis [2] = experiment: Potentiation of pirimiphos-methyl-induced insecticidal activity against OP-resistant Chilo suppressalis Hata-f (rice stem borer) assessed as synergistic ratio at 1:1 pirimiphos-methyl to compound ratio relative to pirimiphos-methyl alone
Chilo suppressalis [3] = experiment: Potentiation of pirimiphos-methyl-induced insecticidal activity against OP-resistant Chilo suppressalis Hata-f (rice stem borer) assessed as synergistic ratio at 1:5 pirimiphos-methyl to compound ratio relative to pirimiphos-methyl alone
Chilo suppressalis [4] = experiment: Potentiation of pirimiphos-methyl-induced insecticidal activity against OP-resistant Chilo suppressalis Hata-f (rice stem borer) assessed as synergistic ratio at 1:10 pirimiphos-methyl to compound ratio relative to pirimiphos-methyl alone
Chilo suppressalis [5] = experiment: Potentiation of fenitrothion-induced insecticidal activity against OP-susceptible Chilo suppressalis (rice stem borer) S strain assessed as synergistic ratio at 1:10 fenitrothion to compound ratio relative to fenitrothion alone

| SMILES | fold change (FC) (Chilo suppressalis [1]) | also measured |
| --- | --- | --- |
| CN(C)C(=O)Oc1ccccc1Cl [2-CHLOROPHENYL DIMETHYLCARBAMATE] | 5.1 | – |
| Cc1cc(OC(=O)N(C)C)nc(C(C)C)n1 | 15 | – |
| Cc1cc(OC(=O)N(C)C)no1 | 16 | fold change (FC) (Chilo suppressalis [2]): 90; fold change (FC) (Chilo suppressalis [3]): 438; fold change (FC) (Chilo suppressalis [4]): 582 |
| CCNC(=O)Oc1cccc2ccccc12 | 1 | – |
| CN(C)C(=O)Oc1ccc(-c2ccccc2)cc1 | 2 | – |
| CN(C)C(=O)Oc1ccccn1 | 11 | – |
| COc1ccc(OC(=O)N(C)C)cc1 [4-METHOXYPHENYL DIMETHYLCARBAMATE] | 3 | – |
| Cc1ccc(OC(=O)N(C)C)cc1 [P-TOLYL DIMETHYLCARBAMATE] | 8.1 | – |
| Cc1cc(OC(=S)N(C)C)ccc1Cl | 4.1 | – |
| CN(C)CCOC(=O)N(C)C [2-(DIMETHYLAMINO)ETHYL DIMETHYLCARBAMATE] | 1 | – |
| CNC(=O)Oc1ccc([N+](=O)[O-])c(C)c1 | 1.1 | – |
| Cc1cc(C)cc(OC(=O)N(C)C)c1 [3,5-DIMETHYLPHENYL DIMETHYLCARBAMATE] | 5.8 | – |
| CN(C)C(=O)Oc1cc(Cl)c(Cl)cc1Cl [2,4,5-TRICHLOROPHENYL DIMETHYLCARBAMATE] | 5.8 | – |
| CN(C)C(=O)Oc1ccc(C#N)cc1 [4-CYANOPHENYL DIMETHYLCARBAMATE] | 14 | – |
| CN(C)C(=O)Oc1cccc2ccccc12 | 13 | – |
| CCC(C)c1ccccc1OC(=O)N(C)C (stereo not given) | 1.8 | – |
| CC(C)c1cccc(OC(=O)N(C)C)c1 [3-ISOPROPYLPHENYL DIMETHYLCARBAMATE] | 4.3 | – |
| N#Cc1ccc(OC(=O)Nc2ccccc2)cc1 [4-CYANOPHENYL PHENYLCARBAMATE] | 0.8 | – |
| CN(C)C(=O)Sc1ccc([N+](=O)[O-])cc1 | 1.9 | – |
| CN(C)C(=O)Oc1ccc2ccccc2c1 [NAPHTHALEN-2-YL DIMETHYLCARBAMATE] | 16 | – |
| CCNC(=O)Oc1ccc(SC)c(C)c1 | 0.6 | – |
| CNC(=O)Oc1ccc(Cl)c(C)c1 | 1.1 | – |
| CN(C)C(=O)Oc1cccc2cccnc12 | 4.6 | – |
| CCNC(=O)Oc1ccc(SC)cc1 [4-(METHYLTHIO)PHENYL ETHYLCARBAMATE] | 1.4 | – |
| CN(C)C(=O)Oc1ccc(Cl)cc1 [4-CHLOROPHENYL DIMETHYLCARBAMATE] | 10 | – |

| SMILES | fold change (FC) (Chilo suppressalis [1]) | also measured |
| --- | --- | --- |
| CN(C)C(=O)Oc1cccc([N+](=O)[O-])c1 [3-NITROPHENYL DIMETHYLCARBAMATE] | 8.2 | – |
| Cc1cc(OC(=O)N(C)C)ccc1[N+](=O)[O-] | 23 | fold change (FC) (Chilo suppressalis [2]): 67; fold change (FC) (Chilo suppressalis [3]): 196; fold change (FC) (Chilo suppressalis [4]): 207; fold change (FC) (Chilo suppressalis [5]): 0.7 |
| CN(C)C(=O)Oc1ccc([N+](=O)[O-])c(C(F)(F)F)c1 | 8 | – |
| CN(C)C(=O)Oc1ccccc1[N+](=O)[O-] [2-NITROPHENYL DIMETHYLCARBAMATE] | 5.8 | – |
| Cc1ccc(OC(=O)N(C)C)cc1C [3,4-DIMETHYLPHENYL DIMETHYLCARBAMATE] | 9.5 | – |
| CN(C)C(=O)Oc1ccc([N+](=O)[O-])cc1[N+](=O)[O-] [2,4-DINITROPHENYL DIMETHYLCARBAMATE] | 0.8 | – |
| CC(C)OC(=O)c1ccc(OC(=O)N(C)C)cc1 [ISOPROPYL 4-(DIMETHYLCARBAMOYLOXY)BENZOATE] | 0.9 | – |
| CN(C)C(=O)Oc1ccc(=O)n(-c2ccccc2)n1 | 3.1 | – |
| COc1nc(C)cc(OC(=O)N(C)C)n1 | 13 | – |
| CCNC(=O)Oc1ccc([N+](=O)[O-])cc1 [4-NITROPHENYL ETHYLCARBAMATE] | 1.2 | – |
| Cc1ccc(OC(=O)N(C)C)c([N+](=O)[O-])c1 | 5.8 | – |
| CCOC(=O)Nc1ccccc1 [ETHYL PHENYLCARBAMATE] | 0.8 | – |
| Cc1cc(OC(=O)N(C)C)nc(C)n1 | 11 | – |
| CN(C)C(=O)OCc1ccc2c(c1)OCO2 | 0.9 | – |
| CNC(=O)Oc1ccc(SC)cc1 [4-(METHYLTHIO)PHENYL METHYLCARBAMATE] | 1.1 | – |
| Cc1cc(OC(=O)Nc2ccccc2)ccc1Cl | 0.8 | – |
| CC(=O)c1ccc(OC(=O)N(C)C)cc1 [4-ACETYLPHENYL DIMETHYLCARBAMATE] | 6.9 | – |
| CNC(=O)Oc1ccc(C#N)cc1 [4-CYANOPHENYL METHYLCARBAMATE] | 1.1 | – |
| Cc1cccc(OC(=O)N(C)C)c1 [M-TOLYL DIMETHYLCARBAMATE] | 9.2 | – |
| CN(C)C(=O)Oc1cccc(Cl)c1 [3-CHLOROPHENYL DIMETHYLCARBAMATE] | 11 | – |
| CN(C)C(=O)Oc1ccc([N+](=O)[O-])c(Cl)c1 | 6.3 | – |
| CCN(CC)C(=O)Oc1cc(-c2ccccc2)on1 | 4.1 | – |
| CSc1ccc(OC(=O)Nc2ccccc2)cc1C | 0.7 | – |
| Cc1ccccc1OC(=O)N(C)C [O-TOLYL DIMETHYLCARBAMATE] | 4.3 | – |
| CN(C)C(=O)Oc1c(Cl)cc(Cl)c2ccccc12 | 1.3 | – |

| SMILES | fold change (FC) (Chilo suppressalis [1]) | also measured |
| --- | --- | --- |
| CNc1nc(C)cc(OC(=O)N(C)C)n1 | 21 | fold change (FC) (Chilo suppressalis [2]): 129; fold change (FC) (Chilo suppressalis [3]): 451; fold change (FC) (Chilo suppressalis [4]): 818 |
| CN(C)C(=S)Oc1ccc(C#N)cc1 | 2.1 | – |
| CN(C)C(=O)Sc1ccc(Cl)cc1 | 1.9 | – |
| CCN(CC)c1nc(C)cc(OC(=O)N(C)C)n1 | 20 | fold change (FC) (Chilo suppressalis [2]): 86; fold change (FC) (Chilo suppressalis [3]): 440; fold change (FC) (Chilo suppressalis [4]): 451; fold change (FC) (Chilo suppressalis [5]): 1 |
| Cc1nc(N(C)C)nc(OC(=O)N(C)C)c1C [PIRIMICARB] | 6.3 | – |
| CSc1ccc(OC(=S)N(C)C)cc1 | 2.3 | – |
| CN(C)C(=O)SCc1ccccc1 [S-BENZYL DIMETHYLCARBAMOTHIOATE] | 1 | – |
| CN(C)C(=O)OCc1ccccc1 [BENZYL DIMETHYLCARBAMATE] | 0.9 | – |
| Cc1cc(OC(=O)N(C)C)nc(-c2ccccc2)n1 | 13 | – |
| CCN(CC)C(=O)Oc1cccc2ccccc12 | 2.5 | – |
| CN(C)C(=O)Oc1ccc([N+](=O)[O-])cc1Cl | 2.4 | – |
| O=C(Nc1ccccc1)Oc1cccc2ccccc12 | 1 | – |
| CSc1ccc(OC(=O)N(C)C)cc1C | 22 | fold change (FC) (Chilo suppressalis [2]): 72; fold change (FC) (Chilo suppressalis [3]): 188; fold change (FC) (Chilo suppressalis [4]): 231; fold change (FC) (Chilo suppressalis [5]): 0.9 |
| Cc1cc(OC(=O)N(C)C)cc(C)c1Cl | 11 | – |
| Cc1cc(OC(=O)N(C)C)ccc1Cl | 12 | – |
| CNC(=O)Oc1ccc(SC)c(C)c1 | 0.8 | – |
| CCN(CC)C(=O)Oc1ccc(SC)c(C)c1 | 4.6 | – |
| Cc1cc(OC(=S)N(C)C)ccc1[N+](=O)[O-] | 1.3 | – |
| CCN(CC)C(=O)Oc1ccc([N+](=O)[O-])cc1 [4-NITROPHENYL DIETHYLCARBAMATE] | 3.3 | – |
| CCOC(=O)/C=C(\C)OC(=O)N(C)C | 1 | – |
| CN(C)C(=O)Oc1ccc([N+](=O)[O-])cc1 [4-NITROPHENYL DIMETHYLCARBAMATE] | 10 | – |
| Cc1c(OC(=O)N(C)C)cc([N+](=O)[O-])cc1[N+](=O)[O-] | 1.1 | – |
| CN(C)C(=S)Oc1ccc([N+](=O)[O-])cc1 | 1.6 | – |
| Cc1ccc([N+](=O)[O-])c(OC(=O)N(C)C)c1 | 3.1 | – |
| CN(C)C(=O)OCc1ccc([N+](=O)[O-])cc1 [4-NITROBENZYL DIMETHYLCARBAMATE] | 1 | – |

| SMILES | fold change (FC) (Chilo suppressalis [1]) | also measured |
| --- | --- | --- |
| O=C(Nc1ccccc1)Oc1ccc([N+](=O)[O-])cc1 [4-NITROPHENYL PHENYLCARBAMATE] | 0.9 | – |
| CCN(CC)C(=O)Oc1cc(C)nc(N(CC)CC)n1 | 8.7 | – |
| Cc1cc(OC(=O)N(C)C)nc(Nc2ccccc2)n1 | 2.8 | – |
| CN(C)C(=O)Oc1cccc(C(C)(C)C)c1 | 3.5 | – |
| CCN(CC)C(=O)Oc1ccc(SC)cc1 [4-(METHYLTHIO)PHENYL DIETHYLCARBAMATE] | 2.9 | – |
| CCNC(=O)Oc1ccc(Cl)c(C)c1 | 1.2 | – |
| COC(=O)c1ccc(OC(=O)N(C)C)cc1 [METHYL 4-(DIMETHYLCARBAMOYLOXY)BENZOATE] | 6.3 | – |
| CN(C)C(=O)Oc1ccccc1 [PHENYL DIMETHYLCARBAMATE] | 5.8 | – |
| CNC(=O)Oc1ccc([N+](=O)[O-])cc1 [4-NITROPHENYL METHYLCARBAMATE] | 0.9 | – |
| CCN(CC)C(=O)Oc1ccc(Cl)c(C)c1 | 1.8 | – |
| CSc1nc(C)cc(OC(=O)N(C)C)n1 | 14 | – |
| CCNC(=O)Oc1ccc(C#N)cc1 [4-CYANOPHENYL ETHYLCARBAMATE] | 1.5 | – |
| Cc1cc(OC(=O)Nc2ccccc2)ccc1[N+](=O)[O-] | 0.9 | – |
| CSc1ccc(OC(=S)N(C)C)cc1C | 4.9 | – |
| CSc1ccc(OC(=O)N(C)C)cc1 [4-(METHYLTHIO)PHENYL DIMETHYLCARBAMATE] | 16 | – |
| CN(C)C(=O)Oc1nc(Cl)c(Cl)cc1Cl | 4.1 | – |
| CN(C)C(=O)Oc1ccc2ccccc2n1 | 15 | – |
| CCN(CC)C(=O)Oc1ccc([N+](=O)[O-])c(C)c1 | 2.3 | – |
| CCNC(=O)Oc1ccc([N+](=O)[O-])c(C)c1 | 0.7 | – |
| CCN(CC)C(=O)Oc1cc(C)nc(N(C)C)n1 | 13 | – |
| CCN(CC)C(=O)Oc1ccc(C#N)cc1 [4-CYANOPHENYL DIETHYLCARBAMATE] | 1.7 | – |
| CCSCCOC(=O)N(C)C [2-(ETHYLTHIO)ETHYL DIMETHYLCARBAMATE] | 1 | – |
